The NIST ThermoML archive (doi:10.1016/j.jct.2013.08.021)
± gives the expanded uncertainty stated by the source.

What was measured:
[1] = xn = mol fraction of the nth substance listed; conditions: 101 kPa, Liquid; for speed of sound: Sing-around technique in a fixed-path interferometer; for mass density: Vibrating tube method
[2] = refractive index (Na D-line) (dimensionless); xn = mol fraction of the nth substance listed; conditions: 101 kPa, Liquid, Standard Abbe refractometry

CCC[N+]1(C)CCCC1.O=S(=O)([N-]S(=O)(=O)C(F)(F)F)C(F)(F)F + CCO
speed of sound ([1]; 298.15 K, x2 = 0): 1270.6 ± 1.5 m/s | speed of sound ([1]; 298.15 K, x2 = 0.016): 1269.2 ± 1.5 m/s | speed of sound ([1]; 298.15 K, x2 = 0.0703): 1266.3 ± 1.5 m/s | speed of sound ([1]; 298.15 K, x2 = 0.0986): 1264.6 ± 1.5 m/s | speed of sound ([1]; 298.15 K, x2 = 0.2816): 1252.4 ± 1.4 m/s | speed of sound ([1]; 298.15 K, x2 = 0.4082): 1241 ± 1.3 m/s | speed of sound ([1]; 298.15 K, x2 = 0.5143): 1228.8 ± 1.3 m/s | speed of sound ([1]; 298.15 K, x2 = 0.6077): 1215.8 ± 1.2 m/s | speed of sound ([1]; 298.15 K, x2 = 0.7059): 1198.4 ± 1.2 m/s | speed of sound ([1]; 298.15 K, x2 = 0.8034): 1177.6 ± 1.2 m/s | speed of sound ([1]; 298.15 K, x2 = 0.9002): 1155 ± 1.2 m/s | speed of sound ([1]; 298.15 K, x2 = 0.9468): 1146.8 ± 1.2 m/s | mass density ([1]; 298.15 K, x2 = 0): 1427.86 ± 0.6 kg/m3 | mass density ([1]; 298.15 K, x2 = 0.016): 1425.68 ± 0.59 kg/m3 | mass density ([1]; 298.15 K, x2 = 0.0703): 1418.06 ± 0.54 kg/m3 | mass density ([1]; 298.15 K, x2 = 0.0986): 1413.89 ± 0.52 kg/m3 | mass density ([1]; 298.15 K, x2 = 0.2816): 1380.66 ± 0.39 kg/m3 | mass density ([1]; 298.15 K, x2 = 0.4082): 1349.44 ± 0.32 kg/m3 | mass density ([1]; 298.15 K, x2 = 0.5143): 1315.09 ± 0.26 kg/m3 | mass density ([1]; 298.15 K, x2 = 0.6077): 1275.55 ± 0.23 kg/m3 | mass density ([1]; 298.15 K, x2 = 0.7059): 1219.23 ± 0.22 kg/m3 | mass density ([1]; 298.15 K, x2 = 0.8034): 1138.92 ± 0.25 kg/m3 | mass density ([1]; 298.15 K, x2 = 0.9002): 1015 ± 0.31 kg/m3 | mass density ([1]; 298.15 K, x2 = 0.9468): 927.02 ± 0.48 kg/m3 | speed of sound ([1]; 303.15 K, x2 = 0): 1259.5 ± 1.5 m/s | speed of sound ([1]; 303.15 K, x2 = 0.016): 1258.2 ± 1.5 m/s | speed of sound ([1]; 303.15 K, x2 = 0.0703): 1255.2 ± 1.5 m/s | speed of sound ([1]; 303.15 K, x2 = 0.0986): 1253 ± 1.5 m/s | speed of sound ([1]; 303.15 K, x2 = 0.2816): 1241.1 ± 1.4 m/s | speed of sound ([1]; 303.15 K, x2 = 0.4082): 1229.5 ± 1.3 m/s | speed of sound ([1]; 303.15 K, x2 = 0.5143): 1217.2 ± 1.3 m/s | speed of sound ([1]; 303.15 K, x2 = 0.6077): 1203.9 ± 1.2 m/s | speed of sound ([1]; 303.15 K, x2 = 0.7059): 1186.2 ± 1.2 m/s | speed of sound ([1]; 303.15 K, x2 = 0.8034): 1164.7 ± 1.2 m/s | speed of sound ([1]; 303.15 K, x2 = 0.9002): 1140.9 ± 1.2 m/s | speed of sound ([1]; 303.15 K, x2 = 0.9468): 1131.8 ± 1.1 m/s | mass density ([1]; 303.15 K, x2 = 0): 1423.26 ± 0.6 kg/m3 | mass density ([1]; 303.15 K, x2 = 0.016): 1421.16 ± 0.58 kg/m3 | mass density ([1]; 303.15 K, x2 = 0.0703): 1413.56 ± 0.54 kg/m3 | mass density ([1]; 303.15 K, x2 = 0.0986): 1409.36 ± 0.52 kg/m3 | mass density ([1]; 303.15 K, x2 = 0.2816): 1376.07 ± 0.39 kg/m3 | mass density ([1]; 303.15 K, x2 = 0.4082): 1344.8 ± 0.31 kg/m3 | mass density ([1]; 303.15 K, x2 = 0.5143): 1310.32 ± 0.26 kg/m3 | mass density ([1]; 303.15 K, x2 = 0.6077): 1270.84 ± 0.23 kg/m3 | mass density ([1]; 303.15 K, x2 = 0.7059): 1214.5 ± 0.22 kg/m3 | mass density ([1]; 303.15 K, x2 = 0.8034): 1134.21 ± 0.25 kg/m3 | mass density ([1]; 303.15 K, x2 = 0.9002): 1010.37 ± 0.3 kg/m3 | mass density ([1]; 303.15 K, x2 = 0.9468): 922.49 ± 0.48 kg/m3 | speed of sound ([1]; 308.15 K, x2 = 0): 1248.6 ± 1.5 m/s | speed of sound ([1]; 308.15 K, x2 = 0.016): 1247.2 ± 1.5 m/s | speed of sound ([1]; 308.15 K, x2 = 0.0703): 1244.3 ± 1.5 m/s | speed of sound ([1]; 308.15 K, x2 = 0.0986): 1242.6 ± 1.5 m/s | speed of sound ([1]; 308.15 K, x2 = 0.2816): 1229.9 ± 1.4 m/s | speed of sound ([1]; 308.15 K, x2 = 0.4082): 1218.2 ± 1.3 m/s | speed of sound ([1]; 308.15 K, x2 = 0.5143): 1205.7 ± 1.3 m/s | speed of sound ([1]; 308.15 K, x2 = 0.6077): 1192.1 ± 1.2 m/s | speed of sound ([1]; 308.15 K, x2 = 0.7059): 1174 ± 1.2 m/s | speed of sound ([1]; 308.15 K, x2 = 0.8034): 1151.9 ± 1.2 m/s | speed of sound ([1]; 308.15 K, x2 = 0.9002): 1127 ± 1.2 m/s | speed of sound ([1]; 308.15 K, x2 = 0.9468): 1117 ± 1.1 m/s | mass density ([1]; 308.15 K, x2 = 0): 1418.83 ± 0.59 kg/m3 | mass density ([1]; 308.15 K, x2 = 0.016): 1416.65 ± 0.58 kg/m3 | mass density ([1]; 308.15 K, x2 = 0.0703): 1409.05 ± 0.54 kg/m3 | mass density ([1]; 308.15 K, x2 = 0.0986): 1404.83 ± 0.51 kg/m3 | mass density ([1]; 308.15 K, x2 = 0.2816): 1371.48 ± 0.39 kg/m3 | mass density ([1]; 308.15 K, x2 = 0.4082): 1340.16 ± 0.31 kg/m3 | mass density ([1]; 308.15 K, x2 = 0.5143): 1305.65 ± 0.26 kg/m3 | mass density ([1]; 308.15 K, x2 = 0.6077): 1266.14 ± 0.23 kg/m3 | mass density ([1]; 308.15 K, x2 = 0.7059): 1209.77 ± 0.23 kg/m3 | mass density ([1]; 308.15 K, x2 = 0.8034): 1129.48 ± 0.26 kg/m3 | mass density ([1]; 308.15 K, x2 = 0.9002): 1005.72 ± 0.32 kg/m3 | mass density ([1]; 308.15 K, x2 = 0.9468): 917.93 ± 0.48 kg/m3 | refractive index ([2]; 298.15 K, x2 = 0): 1.42064 ± 0.00037 | refractive index ([2]; 298.15 K, x2 = 0.016): 1.42045 ± 0.00037 | refractive index ([2]; 298.15 K, x2 = 0.0703): 1.41973 ± 0.00036 | refractive index ([2]; 298.15 K, x2 = 0.0986): 1.41935 ± 0.00036 | refractive index ([2]; 298.15 K, x2 = 0.2816): 1.41621 ± 0.00034 | refractive index ([2]; 298.15 K, x2 = 0.4082): 1.41338 ± 0.00033 | refractive index ([2]; 298.15 K, x2 = 0.5143): 1.41021 ± 0.00033 | refractive index ([2]; 298.15 K, x2 = 0.6077): 1.40661 ± 0.00032 | refractive index ([2]; 298.15 K, x2 = 0.7059): 1.40144 ± 0.00032 | refractive index ([2]; 298.15 K, x2 = 0.8034): 1.39395 ± 0.00032 | refractive index ([2]; 298.15 K, x2 = 0.9002): 1.38228 ± 0.00031 | refractive index ([2]; 298.15 K, x2 = 0.9468): 1.37383 ± 0.00031 | refractive index ([2]; 303.15 K, x2 = 0): 1.41926 ± 0.00037 | refractive index ([2]; 303.15 K, x2 = 0.016): 1.41907 ± 0.00037 | refractive index ([2]; 303.15 K, x2 = 0.0703): 1.41834 ± 0.00036 | refractive index ([2]; 303.15 K, x2 = 0.0986): 1.41789 ± 0.00036 | refractive index ([2]; 303.15 K, x2 = 0.2816): 1.41485 ± 0.00034 | refractive index ([2]; 303.15 K, x2 = 0.4082): 1.412 ± 0.00033 | refractive index ([2]; 303.15 K, x2 = 0.5143): 1.40877 ± 0.00033 | refractive index ([2]; 303.15 K, x2 = 0.6077): 1.40521 ± 0.00032 | refractive index ([2]; 303.15 K, x2 = 0.7059): 1.39995 ± 0.00032 | refractive index ([2]; 303.15 K, x2 = 0.8034): 1.39236 ± 0.00032 | refractive index ([2]; 303.15 K, x2 = 0.9002): 1.38064 ± 0.00031 | refractive index ([2]; 303.15 K, x2 = 0.9468): 1.372 ± 0.00031 | refractive index ([2]; 308.15 K, x2 = 0): 1.41782 ± 0.00037 | refractive index ([2]; 308.15 K, x2 = 0.016): 1.41766 ± 0.00037 | refractive index ([2]; 308.15 K, x2 = 0.0703): 1.4169 ± 0.00036 | refractive index ([2]; 308.15 K, x2 = 0.0986): 1.41649 ± 0.00036 | refractive index ([2]; 308.15 K, x2 = 0.2816): 1.41339 ± 0.00034 | refractive index ([2]; 308.15 K, x2 = 0.4082): 1.41052 ± 0.00033 | refractive index ([2]; 308.15 K, x2 = 0.5143): 1.40732 ± 0.00033 | refractive index ([2]; 308.15 K, x2 = 0.6077): 1.40398 ± 0.00032 | refractive index ([2]; 308.15 K, x2 = 0.7059): 1.39878 ± 0.00032 | refractive index ([2]; 308.15 K, x2 = 0.8034): 1.39104 ± 0.00032 | refractive index ([2]; 308.15 K, x2 = 0.9002): 1.37888 ± 0.00031 | refractive index ([2]; 308.15 K, x2 = 0.9468): 1.37027 ± 0.00032
